This is an account of results in patent US20140135310A1, “SULPHONAMIDE DERIVATIVES OF ALICYCLIC AMINES FOR THE TREATMENT OF CENTRAL NERVOUS SYSTEM DISEASES” (Adamed Sp. z o.o., priority 2011, published 2014).

In assay [1] the target is T1, H1 histaminergic receptors (Homo sapiens, UniProt P35367).
T1 construct: expressed in transfected cells; host or cells: HEK-293 cells
The assay is described as follows: Radioligand binding assay, histaminergic H1 receptors. The note with it: human recombinant (HEK-293 cells), [3H]pyrilamine 1 nM. The text has this:
(§1) The specific ligand binding to the receptors is defined as the difference between the total binding and the non-specific binding determined in the presence of the excess of unlabelled ligand.
(§2) The results are expressed as a percent of control specific binding ((measured specific binding/control specific binding)×100) and as a percent inhibition of control specific binding (100−((measured specific binding/control specific binding)×100)) obtained in the presence of the test compounds. The specific ligand binding to the receptors is defined as the difference between the total binding and the nonspecific binding determined in the presence of an excess of unlabelled ligand. Scintillation counting was the method of detection of ligand binding. The IC50 values (concentration causing a half-maximal inhibition of control specific binding) were determined by non-linear regression analysis of the competition curves generated with mean replicate values using Hill equation curve fitting (Y=D+[(A−D)/(1+(C/C50)nH)], where Y=specific binding, D=minimum specific binding, A=maximum specific binding, C=compound concentration, C50=IC50, and nH=slope factor). This analysis was performed using a software developed at Cerep (Hill software) and validated by comparison with data generated by the commercial software SigmaPlot® 4.0 for Windows® (© 1997 by SPSS Inc.). The inhibition constants (Ki) were calculated using the Cheng Prusoff equation (Ki=IC50/(1+(L/KD)), where L=concentration of radioligand in the assay, and KD=affinity of the radioligand for the receptor). A scatchard plot was used to determine the Kd.
Experimental conditions for tests are given in Table 14, and results of tests for representative compounds are presented in Table 15.

The target in assay [2] is T2, 5-HT1A receptor (rat hippocampus) (Rattus norvegicus, UniProt P19327).
T2 construct: hippocampus; from tissue; host or cells: rat hippocampus
T2 sequence (P19327 1-422): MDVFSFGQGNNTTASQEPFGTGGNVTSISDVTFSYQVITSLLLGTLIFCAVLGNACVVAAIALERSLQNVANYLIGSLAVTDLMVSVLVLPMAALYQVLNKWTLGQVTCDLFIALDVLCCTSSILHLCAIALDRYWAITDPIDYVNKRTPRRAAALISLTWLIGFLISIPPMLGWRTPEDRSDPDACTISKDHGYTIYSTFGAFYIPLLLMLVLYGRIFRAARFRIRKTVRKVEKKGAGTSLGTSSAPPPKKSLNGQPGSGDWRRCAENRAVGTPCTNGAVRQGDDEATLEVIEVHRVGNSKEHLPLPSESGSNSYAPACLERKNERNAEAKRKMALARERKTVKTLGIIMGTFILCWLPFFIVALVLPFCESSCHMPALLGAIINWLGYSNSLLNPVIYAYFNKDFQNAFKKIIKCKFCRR
The assay is described as follows: Radioligand binding assay, serotoninergic 5-HT1A receptors.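 Also: test compound at 1 µM.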 The note with it: binding assay result in %, Table 5a.

A further assay relates to σ receptors. Description: Radioligand binding assay, σ receptors. The following applies: rat cerebral cortex, [3H]DTG 8 nM.
Text: as §1
as §2, with “This analysis was performed using a software developed at Cerep (Hill software) and validated by comparison with data generated by the commercial software SigmaPlot® 4.0 for Windows® (© 1997 by SPSS Inc.).” left out

Assay [3] deals with dopaminergic receptors D3 (Homo sapiens, UniProt P35462). The assay is described as follows: Radioligand binding assay, dopaminergic D3 receptors. The note with it: test compound 1×10^−6 M. The gist of the method:
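Competition radioligand binding at human D2, D3 and D4.4 receptors, detected by scintillation counting; nonspecific binding defined with excess unlabelled ligand. Results as percent inhibition of control specific binding; IC50 by Hill-equation nonlinear regression; Ki via Cheng-Prusoff, with radioligand KD from Scatchard plot.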

For the next assay, the target named is T3, α2C adrenergic receptors (Homo sapiens, UniProt P18825).
T3 construct: expressed in transfected cells; host or cells: CHO cells
T3 sequence (P18825 1-462): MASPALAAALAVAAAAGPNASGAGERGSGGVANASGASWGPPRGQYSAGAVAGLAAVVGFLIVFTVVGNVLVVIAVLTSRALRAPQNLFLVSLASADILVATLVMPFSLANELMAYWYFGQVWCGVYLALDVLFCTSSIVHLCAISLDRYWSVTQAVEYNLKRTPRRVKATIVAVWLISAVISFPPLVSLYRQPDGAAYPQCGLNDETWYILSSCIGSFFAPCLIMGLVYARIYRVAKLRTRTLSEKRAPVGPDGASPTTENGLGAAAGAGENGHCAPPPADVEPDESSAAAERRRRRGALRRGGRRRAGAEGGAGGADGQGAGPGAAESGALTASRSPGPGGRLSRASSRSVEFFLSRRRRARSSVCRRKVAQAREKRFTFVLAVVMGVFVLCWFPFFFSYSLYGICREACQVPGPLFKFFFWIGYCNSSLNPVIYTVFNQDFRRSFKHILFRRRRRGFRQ
The assay is described as follows: Radioligand binding assay, adrenergic α2C receptors. The following applies: test compound 1×10^−6 M.
Text: as §1, §2
Experimental conditions for tests are given in Table 7, and results of tests for representative compounds are given in Tables 8 (α1 receptors) and in Tables 9 (α2C receptors).

The next assay addresses T4, 5-HT7 receptor (Homo sapiens, UniProt P34969).
T4 construct: purchased PerkinElmer
Description: Radioligand binding assay, serotoninergic 5-HT7 receptors.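 Also: test compound at 1 µM.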 The following applies: binding assay result in %, Table 5a. The gist of the method:
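Competition binding at human 5-HT7 receptors with a radioligand, detected by scintillation counting; non-specific binding was defined with excess unlabelled ligand. IC50 came from Hill-equation fits of competition curves, and Ki from Cheng–Prusoff using radioligand concentration and Scatchard-derived KD.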

The next assay concerns the target T5, 5-HT2A receptor (Homo sapiens, UniProt P28223).
T5 construct: purchased PerkinElmer
Description: Radioligand binding assay, serotoninergic 5-HT2A receptors. The note with it: for Ki: read-out: Inhibition constants Ki, 5-HT2A. The gist of the method:
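Radioligand competition binding with scintillation counting; nonspecific binding defined by excess unlabelled ligand. Data as percent inhibition of control specific binding. IC50 by Hill-equation fit of competition curves; Ki by Cheng-Prusoff, with radioligand Kd from Scatchard plot.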

Setting [4] is: binding assay result in %, Table 5a.

dopaminergic receptors D3, sequence (P35462 whole entry): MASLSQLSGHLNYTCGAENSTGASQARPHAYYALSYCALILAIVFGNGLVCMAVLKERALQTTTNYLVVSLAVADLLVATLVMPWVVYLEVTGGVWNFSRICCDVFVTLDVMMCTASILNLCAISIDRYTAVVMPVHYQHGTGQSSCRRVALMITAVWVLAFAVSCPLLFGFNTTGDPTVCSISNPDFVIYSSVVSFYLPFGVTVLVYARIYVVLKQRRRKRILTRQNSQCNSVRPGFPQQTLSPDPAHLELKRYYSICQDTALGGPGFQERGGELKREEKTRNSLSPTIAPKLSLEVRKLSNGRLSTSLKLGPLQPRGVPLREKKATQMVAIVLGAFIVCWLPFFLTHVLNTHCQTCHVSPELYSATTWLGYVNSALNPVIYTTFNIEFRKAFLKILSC
T4 sequence (P34969 whole entry): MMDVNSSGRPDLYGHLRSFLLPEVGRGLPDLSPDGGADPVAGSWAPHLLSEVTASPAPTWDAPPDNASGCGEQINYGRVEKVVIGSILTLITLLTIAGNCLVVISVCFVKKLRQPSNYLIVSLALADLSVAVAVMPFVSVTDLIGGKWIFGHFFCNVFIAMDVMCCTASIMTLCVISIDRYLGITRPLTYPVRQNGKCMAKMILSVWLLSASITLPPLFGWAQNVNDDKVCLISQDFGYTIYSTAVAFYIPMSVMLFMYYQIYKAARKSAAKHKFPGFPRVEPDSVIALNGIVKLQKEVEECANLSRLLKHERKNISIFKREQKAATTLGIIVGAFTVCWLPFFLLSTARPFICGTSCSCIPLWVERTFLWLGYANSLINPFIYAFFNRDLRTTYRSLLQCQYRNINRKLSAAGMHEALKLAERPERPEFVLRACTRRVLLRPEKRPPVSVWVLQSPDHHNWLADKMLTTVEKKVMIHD
T5 sequence (P28223 whole entry): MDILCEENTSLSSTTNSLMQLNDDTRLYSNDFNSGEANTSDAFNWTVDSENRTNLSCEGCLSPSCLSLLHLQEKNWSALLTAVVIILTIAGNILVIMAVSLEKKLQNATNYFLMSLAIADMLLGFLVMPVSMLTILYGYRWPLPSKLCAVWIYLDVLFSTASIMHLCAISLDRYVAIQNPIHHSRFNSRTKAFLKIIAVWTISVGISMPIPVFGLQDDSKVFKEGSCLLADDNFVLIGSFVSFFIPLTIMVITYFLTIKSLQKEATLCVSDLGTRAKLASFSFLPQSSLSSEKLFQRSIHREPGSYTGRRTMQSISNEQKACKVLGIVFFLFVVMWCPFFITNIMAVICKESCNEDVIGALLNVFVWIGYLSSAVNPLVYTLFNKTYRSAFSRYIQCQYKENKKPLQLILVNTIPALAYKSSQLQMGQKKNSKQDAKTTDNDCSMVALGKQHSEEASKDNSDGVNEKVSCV
T1 sequence (P35367 whole entry): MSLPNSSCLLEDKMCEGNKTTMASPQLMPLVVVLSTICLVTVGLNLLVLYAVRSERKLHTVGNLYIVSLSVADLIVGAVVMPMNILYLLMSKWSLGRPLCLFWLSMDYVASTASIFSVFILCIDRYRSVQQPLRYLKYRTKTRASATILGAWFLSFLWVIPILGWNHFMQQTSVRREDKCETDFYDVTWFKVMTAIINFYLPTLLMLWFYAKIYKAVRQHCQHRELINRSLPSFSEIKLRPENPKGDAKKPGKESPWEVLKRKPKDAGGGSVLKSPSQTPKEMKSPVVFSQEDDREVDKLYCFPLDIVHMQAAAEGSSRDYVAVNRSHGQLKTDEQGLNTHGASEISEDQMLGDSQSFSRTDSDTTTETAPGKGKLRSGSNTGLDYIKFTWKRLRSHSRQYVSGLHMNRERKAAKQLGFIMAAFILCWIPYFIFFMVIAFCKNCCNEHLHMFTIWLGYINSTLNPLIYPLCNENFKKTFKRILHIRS

A word on the inhibition: it is the share of the control response that was lost under treatment. The term Ki denotes the dissociation constant of the complex between target and ligand, obtained from inhibition or displacement. Regarding `Cc1c(S(=O)(=O)N[C@H]2CCN(CCCc3noc4cc(F)ccc34)C2)sc2ccc(Cl)cc12` [Compound 205, 5-Chloro-N-[(3S)-1-[3-(6-fluoro-1,2-benzoxazol-3-yl)propyl]pyrrolidin-3-yl]-3-methyl-benzothiophene-2-sulphonamide], the inhibition at 1 µM in assay [1] came out at 50%; in assay [2], 63%; in assay [3], 99%; on α2C adrenergic receptors, 86%; at 5-HT7 receptor, 98%. The “σ [%]” value with σ receptors was 92%. The inhibition constant Ki at 5-HT2A receptor amounted to 1.6 nM.

With `Cc1c(S(=O)(=O)NC2CCN(CCCc3noc4cc(F)ccc34)C2)sc2ccc(Cl)cc12` (stereo not shown) [Compound 29, 5-Chloro-N-[1-[3-(6-fluoro-1,2-benzoxazol-3-yl)propyl]pyrrolidin-3-yl]-3-methyl-benzothiophene-2-sulphonamide], the inhibition at 1 µM in assay [1] amounted to 59%; in assay [2], 70%; in assay [3], 85%; on α2C adrenergic receptors, 84%; on 5-HT7 receptor, 52%. The “σ [%]” value in the assay with σ receptors is recorded as 60%.

For `Cc1ccc2sc(S(=O)(=O)NC3CCN(CCCc4noc5cc(F)ccc45)C3)cc2c1` (stereo not shown) [Compound 226, N-[1-[3-(6-Fluoro-1,2-benzoxazol-3-yl)propyl]pyrrolidin-3-yl]-5-methylbenzothiophene-2-sulphonamide], the inhibition at 1 µM came out at 73% in assay [1]; 43% in assay [2]; 95% in assay [3]; 86% at α2C adrenergic receptors; 91% at 5-HT7 receptor. Further, in the assay with σ receptors, the “σ [%]” value amounted to 82%.

In the case of `O=S(=O)(NC1CCN(CCCc2noc3cc(F)ccc23)C1)c1csc2ccccc12` (stereo not shown) [Compound 26, N-[1-[3-(6-Fluoro-1,2-benzoxazol-3-yl)propyl]pyrrolidin-3-yl]-benzothiophene-3-sulphonamide], the inhibition at 1 µM in assay [1] was 44%; in assay [2], 79%; in assay [3] it was 81%; at α2C adrenergic receptors, 76%; on 5-HT7 receptor, 97%. In addition, the “σ [%]” value with σ receptors is given as 80%.

Regarding “N-[1-[3-(6-Fluoro-1,2-benzoxazol-3-yl)propyl]pyrrolidin-3-yl]-1-methyl-imidazole-4-sulphonamide [Compound 217]”, in assay [1], the “H1 [%]” value was found to be 46%. The “5-HT1A [%]” value in assay [2] was 54%. In addition, the “σ [%]” value in the assay on σ receptors was determined as 86%. Also, the “D3 [%]” value in assay [3] is recorded as 84%. Also, the “α2C [%]” value at α2C adrenergic receptors came out at 96%. On 5-HT7 receptor, the “5-HT7 [%]” value is on record as 97%.

For `COc1ccc2cc(S(=O)(=O)NC3CCN(CCCc4noc5cc(F)ccc45)C3)ccc2c1` (stereo not shown) [Compound 227, N-[1-[3-(6-Fluoro-1,2-benzoxazol-3-yl)propyl]pyrrolidin-3-yl]-6-methoxy-naphthalene-2-sulphonamide], the inhibition at 1 µM in assay [1] was 69%; in assay [2], 62%; in assay [3] it was 96%; at α2C adrenergic receptors, 90%; on 5-HT7 receptor, 91%. Moreover, in the assay on σ receptors, the “σ [%]” value came to 59%.

With `Cc1c(S(=O)(=O)N[C@@H]2CCN(CCCc3noc4cc(F)ccc34)C2)sc2ccc(Cl)cc12` [Compound 204, 5-Chloro-N-[(3R)-1-[3-(6-fluoro-1,2-benzoxazol-3-yl)propyl]pyrrolidin-3-yl]-3-methyl-benzothiophene-2-sulphonamide], the inhibition at 1 µM worked out at 71% in assay [2], 96% in assay [3], 89% at α2C adrenergic receptors and 87% at 5-HT7 receptor. Moreover, the “σ [%]” value in the assay on σ receptors amounted to 90%. In addition, the inhibition constant (Ki) at 5-HT2A receptor was determined as 0.8 nM.

Take `O=S(=O)(NC1CCN(CCCc2c[nH]c3ccc(F)cc23)C1)c1ccc2ccccc2c1` (stereo not shown) [Compound 80, N-[1-[3-(5-Fluoro-1H-indol-3-yl)propyl]pyrrolidin-3-yl]naphthalene-2-sulphonamide]: the inhibition at 1 µM is 98% in assay [2]; 100% in assay [3]; 88% on α2C adrenergic receptors; 93% on 5-HT7 receptor; 100% on 5-HT2A receptor (setting [4]). For the same compound, the “σ [%]” value in the assay on σ receptors was found to be 81%.

In the case of `O=S(=O)(NC1CN(CCOc2cccc3c2OCCO3)C1)c1cccc2ccccc12` [Compound 94, N-[1-[2-(2,3-Dihydro-1,4-benzodioxan-8-yloxy)ethyl]azetidin-3-yl]-naphthalene-1-sulphonamide], in assay [2], the “5-HT1A [%]” value is 98%. Moreover, in the assay with σ receptors, the “σ [%]” value was found to be 71%. The “D3 [%]” value in assay [3] is listed as 105%. In addition, the “α2C [%]” value at α2C adrenergic receptors is 106%. At 5-HT7 receptor, the “5-HT7 [%]” value is reported as 100%. Also, the “5-HT2A [%]” value at 5-HT2A receptor (setting [4]) is on record as 99%.

On to `O=S(=O)(NC1CCN(CCCc2noc3cc(F)ccc23)C1)c1cc2ccccc2o1` (stereo not shown) [Compound 216, N-[1-[3-(6-Fluoro-1,2-benzoxazol-3-yl)propyl]pyrrolidin-3-yl]benzofuran-2-sulphonamide], for which the inhibition at 1 µM was found to be 61% in assay [1]; 35% in assay [2]; 85% in assay [3]; 80% at α2C adrenergic receptors; 99% at 5-HT7 receptor. For the same compound, the “σ [%]” value in the assay on σ receptors worked out at 88%.

On to `O=S(=O)(NC1CCN(CCOc2nsc3ccccc23)C1)c1ccc2ccccc2c1` (stereo not shown) [Compound 39, N-[1-[2-(1,2-Benzothiazol-3-yloxy)ethyl]pyrrolidin-3-yl]naphthalene-2-sulphonamide], for which the inhibition at 1 µM was found to be 99% in assay [2]; 95% in assay [3]; 92% on α2C adrenergic receptors; 90% on 5-HT7 receptor; 99% at 5-HT2A receptor (setting [4]). Besides, the “σ [%]” value with σ receptors is 54%.
